Values quoted from earlier work in patent US20130210861A1, “METHODS AND COMPOSITIONS FOR MANAGING CARDIOVASCULAR DISEASE ASSOCIATED WITH CHRONIC KIDNEY DISEASE” (priority 2011, published 2013).
Read-outs that look alike come from different tables or passages of the source.

How the values were obtained:
[1] = system: APO E -/- mice
[2] = HCQ use
[3] = patients with inflammatory disorders
[4] = multiple rheumatological cohorts with CVD
[5] = Latin American cohort
[6] = Lumina cohort, southern US
[7] = system: matrix metallo proteinase-9 (MMP-9); settings: SLE patients
[8] = not given; remark: listed apart in the source

Compound	atheroprotection [1]	OR for metabolic syndrome [2]	OR for vascular events [2]	absorption (200 mg tablet)	elimination half-life (200 mg tablet (155 mg of base)) [days]	plasma protein binding (in vivo)	fasting glucose [3]	OR for death [4]	OR for death [5]	OR for death [6]	MMP-9 secretion [7]	cardiovascular deaths in patients using HCQ ([8]; 232 patients, 52-month study period, 7 deaths in those never exposed to HCQ)	HR for death from any cause ([8]; Spanish trial cohort, HCQ use)
CCN(CC)CCCC(C)Nc1ccnc2cc(Cl)ccc12 (centres unmarked) [Chloroquine]	significant atheroprotection activity	–	–	–	–	–	–	–	–	–	–	–	–
CCN(CCO)CCCC(C)Nc1ccnc2cc(Cl)ccc12 (centres unmarked) [HCQ, hydroxychloroquine]	significant atheroprotection	0.13	0.3	absorbed rapidly and completely	32 to 50	moderate	lowered	0.12-0.49	0.62	0.31	inhibited	zero	0.14
